The test addresses FAS (Homo sapiens, UniProt P49327). Briefly: FAS assay (Assay #1 residual NADPH detection or Assay #2 CoA detection with CPM dye). The format is biochemical. To be noted: in at least one experimental run; tested generally according to the assays described (assay #1 or #2 not specified). The procedure: FAS assay FAS activity was measured through one of the two following assays.
Inhibition of FAS activity can be measured based on the detection of residual NADPH substrate after the FAS assay is quenched. This assay is run as a 10 μL endpoint assay in 384-well format, where the reaction contains 20 μM malonyl-CoA, 2 μM acetyl-CoA, 30 μM NADPH and 40 nM FAS in 50 mM sodium phosphate, pH 7.0. The assay is run by sequentially dispensing 5 μl of a malonyl-CoA solution, then enzyme solution (containing the acetyl-CoA, and NADPH) into a black, low volume assay plate (Greiner 784076) pre-dispensed with […] compound solutions in DMSO. The reaction is incubated at ambient temperature for 60 minutes, then quenched with 5 μL of a developing solution composed of 90 μM resazurin, 0.3 IU/ml diaphorase in 50 mM sodium phosphate, pH 7.0. The developed reaction is read on a Molecular Devices Analyst or Acquest (or equivalent) plate reader using a 530 nm excitation wavelength filter, a 580 nm emission filter, and 561 nm dichroic filter. The test compounds are prepared in neat DMSO at a concentration of 10 mM. For inhibition curves, compounds are diluted using a three fold serial dilution and tested at 11 concentrations (e.g. 25 μM-0.42 nM). Curves are analysed using Activityl)ase and XLfit, and results are expressed as pIC50 values.
Inhibition of FAS can also be quantified based on the detection of the CoA products with a thio-reactive coumarin dye. This assay is run as a 10 μL endpoint assay in 384-well format, where the reaction contains 20 μM malonyl-CoA, 20 μM acetyl-CoA, 40 μM NADPH and 2 nM FAS in 50 mM sodium phosphate, pH 7.0, and 0.04% Tween-20. The assay is run by adding 5 μL enzyme solution to a black, low volume assay plate (Greiner 784076) pre-dispensed with 100 nl compound solutions in DMSO. After 30 minutes, 5 μL substrate is added, and the reaction incubated at ambient temperature for an additional 60 minutes. The reaction is then quenched with 10 μL of 6M guanidine-HCl containing 50 μM CPM (7-diethylamino-3-(4′-maleimidylphenyl)-4-methylcoumarin (CPM; thio-reactive dye), and incubated for 30 minutes. The plate is read on an Envision (PerkinElmer) or equivalent plate reader using a 380 nm excitation wavelength filter, and a 486 nm emission filter. Data fitting and compound preparations are done as described above.
FAS, sequence (P49327 whole entry): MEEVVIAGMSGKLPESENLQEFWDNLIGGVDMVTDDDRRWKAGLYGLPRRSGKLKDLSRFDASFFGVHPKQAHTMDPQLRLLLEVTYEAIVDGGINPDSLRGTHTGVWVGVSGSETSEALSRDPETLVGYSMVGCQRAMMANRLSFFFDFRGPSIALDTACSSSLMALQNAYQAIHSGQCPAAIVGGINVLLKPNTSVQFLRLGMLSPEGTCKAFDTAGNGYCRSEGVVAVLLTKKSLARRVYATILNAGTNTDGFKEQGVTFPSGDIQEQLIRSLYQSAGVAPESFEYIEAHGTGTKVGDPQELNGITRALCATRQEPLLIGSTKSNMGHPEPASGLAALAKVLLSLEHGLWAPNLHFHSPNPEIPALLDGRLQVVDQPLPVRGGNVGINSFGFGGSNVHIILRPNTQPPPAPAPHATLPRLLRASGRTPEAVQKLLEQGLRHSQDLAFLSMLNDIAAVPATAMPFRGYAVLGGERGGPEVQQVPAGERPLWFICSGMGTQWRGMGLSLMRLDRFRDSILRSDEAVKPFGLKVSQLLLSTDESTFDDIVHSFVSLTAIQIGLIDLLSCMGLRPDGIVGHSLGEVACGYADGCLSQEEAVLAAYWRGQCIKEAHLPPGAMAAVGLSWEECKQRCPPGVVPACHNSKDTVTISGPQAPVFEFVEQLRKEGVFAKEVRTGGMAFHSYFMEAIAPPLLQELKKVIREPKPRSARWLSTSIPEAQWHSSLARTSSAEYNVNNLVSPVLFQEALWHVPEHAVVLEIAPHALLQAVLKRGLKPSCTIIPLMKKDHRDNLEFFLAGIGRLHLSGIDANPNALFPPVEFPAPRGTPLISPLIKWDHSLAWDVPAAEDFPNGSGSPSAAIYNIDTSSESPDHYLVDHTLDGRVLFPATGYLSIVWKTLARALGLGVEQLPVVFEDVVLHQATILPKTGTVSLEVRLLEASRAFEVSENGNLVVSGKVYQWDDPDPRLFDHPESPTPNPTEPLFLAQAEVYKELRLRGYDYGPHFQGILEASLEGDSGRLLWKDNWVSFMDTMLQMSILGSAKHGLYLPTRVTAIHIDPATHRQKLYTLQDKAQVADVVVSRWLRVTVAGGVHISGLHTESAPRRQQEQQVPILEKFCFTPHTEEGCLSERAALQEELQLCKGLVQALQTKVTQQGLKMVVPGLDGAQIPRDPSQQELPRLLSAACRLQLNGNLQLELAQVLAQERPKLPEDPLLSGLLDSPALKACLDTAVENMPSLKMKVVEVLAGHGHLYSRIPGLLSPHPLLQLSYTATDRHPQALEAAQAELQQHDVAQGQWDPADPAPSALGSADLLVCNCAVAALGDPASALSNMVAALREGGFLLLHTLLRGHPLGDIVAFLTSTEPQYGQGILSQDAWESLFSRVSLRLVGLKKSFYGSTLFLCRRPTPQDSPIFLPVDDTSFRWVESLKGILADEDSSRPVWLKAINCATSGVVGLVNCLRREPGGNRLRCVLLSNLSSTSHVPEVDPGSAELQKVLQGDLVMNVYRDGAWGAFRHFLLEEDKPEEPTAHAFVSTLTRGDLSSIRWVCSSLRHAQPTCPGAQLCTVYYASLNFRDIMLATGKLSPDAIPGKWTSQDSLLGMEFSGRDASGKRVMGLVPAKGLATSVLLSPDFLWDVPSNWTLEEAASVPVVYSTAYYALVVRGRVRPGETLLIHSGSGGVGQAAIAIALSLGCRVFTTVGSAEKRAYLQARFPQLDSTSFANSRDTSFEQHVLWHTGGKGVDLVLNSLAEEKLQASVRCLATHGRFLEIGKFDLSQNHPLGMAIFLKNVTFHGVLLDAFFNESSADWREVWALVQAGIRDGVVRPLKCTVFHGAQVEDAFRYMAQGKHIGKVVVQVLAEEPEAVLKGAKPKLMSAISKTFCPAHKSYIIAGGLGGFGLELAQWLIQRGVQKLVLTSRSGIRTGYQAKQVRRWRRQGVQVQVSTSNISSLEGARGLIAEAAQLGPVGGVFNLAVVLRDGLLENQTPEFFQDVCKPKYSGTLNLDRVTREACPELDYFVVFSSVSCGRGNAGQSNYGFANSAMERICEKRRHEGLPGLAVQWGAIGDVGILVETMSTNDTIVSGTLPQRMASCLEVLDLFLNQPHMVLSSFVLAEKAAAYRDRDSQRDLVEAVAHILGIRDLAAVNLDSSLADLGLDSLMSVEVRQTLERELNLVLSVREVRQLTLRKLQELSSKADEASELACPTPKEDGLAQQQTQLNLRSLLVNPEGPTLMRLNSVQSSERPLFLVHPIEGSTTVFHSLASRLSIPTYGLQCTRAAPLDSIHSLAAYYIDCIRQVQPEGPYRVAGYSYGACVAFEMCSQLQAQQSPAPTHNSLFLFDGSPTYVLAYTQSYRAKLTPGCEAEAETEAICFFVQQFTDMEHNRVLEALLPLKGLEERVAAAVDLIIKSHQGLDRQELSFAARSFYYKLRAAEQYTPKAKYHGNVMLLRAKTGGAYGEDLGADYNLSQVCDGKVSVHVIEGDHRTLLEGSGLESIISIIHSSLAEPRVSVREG
On to `Cc1cccc(-c2ccc(-c3nc4ncccc4n3C[C@@H]3CCN(C(=O)C4CC4)C3)cc2)c1` [Example 2, 1-{[(3S)-1-(cyclopropylcarbonyl)-3-pyrrolidinyl]methyl}-2-(3′-methyl-4-biphenylyl)-1H-imidazo[4,5-b]pyridine], for which half-maximal inhibition (IC50) was put at 63 nM.

In the case of `CN(C)C(=O)N1CC[C@@H](Cn2c(-c3ccc(-c4ccccc4)cc3)nc3cnccc32)C1` [Example 19, (3S)-3-{[2-(4-biphenylyl)-1H-imidazo[4,5-c]pyridin-1-yl]methyl}-N,N-dimethyl-1-pyrrolidinecarboxamide], 1060 nM corresponded to half-maximal inhibition (IC50).

Compound `O=C(C1CC1)N1CC[C@@H](Cn2c(-c3ccc(-c4ccc5occc5c4)cc3)nc3cnccc32)C1` [Example 22, 2-[4-(1-benzofuran-5-yl)phenyl]-1-{[(3S)-1-(cyclopropylcarbonyl)-3-pyrrolidinyl]methyl}-1H-imidazol[4,5-c]pyridine] gave an IC50 of 60 nM. Against the preceding compound, the IC50 is about 18-fold lower. As for `O=C(C1CC1)N1CC[C@@H](Cn2c(-c3ccc(-c4ccc5[nH]ccc5c4)cc3)nc3cnccc32)C1` [Example 25, 1-{[(3S)-1-(cyclopropylcarbonyl)-3-pyrrolidinyl]methyl}-2-[4-(1H-indol-5-yl)phenyl]-1H-imidazo[4,5-c]pyridine], the figure is 19 nM; as for `COc1ccc(-c2ccc(-c3nc4cccnc4n3C[C@@H]3CCN(C(=O)C4CC4)C3)cc2)cc1` [Example 27, 3-{[(3S)-1-(cyclopropylcarbonyl)-3-pyrrolidinyl]methyl}-2-[4′-(methyloxy)-4-biphenylyl]-3H-imidazo[4,5-b]pyridine], 45 nM; as for `O=C(C1CC1)N1CC[C@@H](Cn2c(-c3ccc(-c4ccc5cc[nH]c5c4)cc3)nc3cccnc32)C1` [Example 35, 3-{[(3S)-1-(cyclopropylcarbonyl)-3-pyrrolidinyl]methyl}-2-[4-(1H-indol-6-yl)phenyl]-3H-imidazo[4,5-b]pyridine], 9 nM. As for `O=C(C1CC1)N1CC[C@@H](Cn2c(-c3ccc(-c4ccccc4)cc3)nc3c(Cl)ncnc32)C1` [Example 46, 8-(4-biphenylyl)-6-chloro-9-{[(3S)-1-(cyclopropylcarbonyl)-3-pyrrolidinyl]methyl}-9H-purine], the figure is 129 nM; as for `O=C(C1CC1)N1CC[C@@H](Cn2c(-c3ccc(-c4cnc5[nH]ccc5c4)cc3)nc3cnccc32)C1` [Example 54, 1-{[(3S)-1-(cyclopropylcarbonyl)-3-pyrrolidinyl]methyl}-2-[4-(1H-pyrrolo[2,3-b]pyridin-5-yl)phenyl]-1H-imidazo[4,5-c]pyridine], 142 nM; as for `O=C(C1CC1)N1CC[C@@H](Cn2c(-c3ccc(-c4cccc5[nH]ccc45)cc3)nc3cnccc32)C1` [Example 55, 1-{[(3S)-1-(cyclopropylcarbonyl)-3-pyrrolidinyl]methyl}-2-[4-(1H-indol-4-yl)phenyl]-1H-imidazo[4,5-c]pyridine], 13 nM.

As for `O=C(C1CC1)N1CC[C@@H](Cn2c(-c3ccc(-c4ccc5scnc5c4)cc3)nc3cnccc32)C1` [Example 58, 2-[4-(1,3-benzothiazol-5-yl)phenyl]-1-{[(3S)-1-(cyclopropylcarbonyl)-3-pyrrolidinyl]methyl}-1H-imidazo[4,5-c]pyridine], half-maximal inhibition (IC50) required 10 nM.

The term IC50 denotes the point on the concentration scale where inhibition reaches its midpoint. Read a high IC50 as a need for much substance.
